Legend:
[1] = test system: IL-6; test: LPS-stimulated whole bovine blood assay, MSD cytokine detection; assay type: cell-based; details: Bos taurus, LPS-stimulated bovine whole blood; read-out: IL-6 (IC50 μM)
Source text: (§1) In order to correlate RNA sequencing data to cytokine changes the whole blood assay was utilized. […] The enhancement result represents an overall stimulation of cytokine levels due to cellular stress or potential toxicity with increasing concentrations of the compound, representing a typical bell shape response curve for immunomodulatory activity.

[2] = test system: TNF-α; test: as above; assay type: cell-based; details: Bos taurus, LPS-stimulated bovine whole blood; read-out: TNF-α (IC50 μM)
Protocol: (§2) Therefore, a fresh whole bovine blood assay was developed with LPS as a stimulant (TLR-4 agonist) and with IL-1β and TNF-α as the read-out. Compounds of the invention were evaluated against a positive control for their ability to inhibit LPS-induced IL-1β and TNF-α as an overall evaluation of relative potency and modulation of target pathways (Table 6).
In the bovine whole blood in vitro screening assay the inhibition of TNFα as induced by stimulation by lipopolysaccharide (LPS) and as measured by half the maximal inhibitory concentration (IC50) is recognized as the primary biomarker of immunomodulation potency upon pretreatment with the compounds of the invention. IL-1β is a mediator of the inflammation response and is involved in a number of cellular activities including proliferation, differentiation and apoptosis. IL-1β is also released upon cellular stress or cytotoxicity or upon TLR stimulation. In the bovine whole blood assay the stimulation of IL-1β release upon increasing concentration of test compound is seen as a potential cellular toxicity signal as induced by the test compound. In order to estimate a therapeutic index from the in vitro assay a differential between the TNFα IC50 (immunomodulation potency) versus the perceived cellular toxicity concentration (IL-1β release or overstimulation) was utilized.

[3] = test system: IL-1β; test: as above; assay type: cell-based; details: overstimulation of IL-1β, LPS-stimulated bovine whole blood
Protocol: as §2, with “The effect of multiple cytokines was not easily quantified using single cell types. Therefore,” for “Therefore,”
as §1
In the bovine whole blood in vitro screening assay the inhibition of TNFα as induced by stimulation by lipopolysaccharide (LPS) and as measured by half the maximal inhibitory concentration (IC50) is recognized as the primary biomarker of immunomodulation potency upon pretreatment with the compounds of the invention.

[4] = test system: BRD pathogens, M. haemolytica and P. multocida; test: MIC screening panel of BRD pathogens (antibacterial / non-antibacterial); details: read-out: antibacterial / non-antibacterial (MIC for the BRD pathogens)

SMILES	IC50 [1] [µM]	IC50 [2] [µM]	IL-1β OS of LPS [3] [µM]	MIC [4] [mg/L]
CCCNC[C@]1(O)[C@H](C)O[C@@H](O[C@H]2[C@H](C)[C@@H](O[C@@H]3O[C@H](C)C[C@H](N(C)C(=O)N4Cc5ccccc5C4)[C@H]3O)[C@](C)(O)C[C@@H](C)CN[C@H](C)[C@@H](O)[C@](C)(O)[C@@H](CC)OC(=O)[C@@H]2C)C[C@@]1(C)OC [Example I-7, N-((2S,3R,4S,6R)-2-(((2R,3S,4R,5R,8R,10R,11R,12S,13S,14R)-2-ethyl-3,4,10-trihydroxy-13-(((2R,4R,5S,6S)-5-hydroxy-4-methoxy-4,6-dimethyl-5-((propylamino)methyl)tetrahydro-2H-pyran-2-yl)oxy)-3,5,8,10,12,14-hexamethyl-15-oxo-1-oxa-6-azacyclopentadecan-11-yl)oxy)-3-hydroxy-6-methyltetrahydro-2H-pyran-4-yl)-N-methylisoindoline-2-carboxamide]	16	8	6	
CCCNC[C@]1(O)[C@H](C)O[C@@H](O[C@H]2[C@H](C)[C@@H](O[C@@H]3O[C@H](C)C[C@H](N(C)C(=O)Nc4ccccc4C)[C@H]3O)[C@](C)(O)C[C@@H](C)CN[C@H](C)[C@@H](O)[C@](C)(O)[C@@H](CC)OC(=O)[C@@H]2C)C[C@@]1(C)OC [Example H-81, 1-((2S,3R,4S,6R)-2-(((2R,3S,4R,5R,8R,10R,11R,12S,13S,14R)-2-ethyl-3,4,10-trihydroxy-13-(((2R,4R,5S,6S)-5-hydroxy-4-methoxy-4,6-dimethyl-5-((propylamino)methyl)tetrahydro-2H-pyran-2-yl)oxy)-3,5,8,10,12,14-hexamethyl-15-oxo-1-oxa-6-azacyclopentadecan-11-yl)oxy)-3-hydroxy-6-methyltetrahydro-2H-pyran-4-yl)-1-methyl-3-(o-tolyl)urea]	47	> 250	39	
CC[C@H]1OC(=O)[C@H](C)[C@@H](O[C@H]2C[C@@](C)(OC)[C@@H](O)[C@H](C)O2)[C@H](C)[C@@H](O[C@@H]2O[C@H](C)C[C@H](N(C)C(=O)N(C)c3ccccc3)[C@H]2O)[C@](C)(O)C[C@@H](C)CN[C@H](C)[C@@H](O)[C@]1(C)O [Example B-3, 1-((2S,3R,4S,6R)-2-(((2R,3S,4R,5R,8R,10R,11R,12S,13S,14R)-2-ethyl-3,4,10-trihydroxy-13-(((2R,4R,5S,6S)-5-hydroxy-4-methoxy-4,6-dimethyltetrahydro-2H-pyran-2-yl)oxy)-3,5,8,10,12,14-hexamethyl-15-oxo-1-oxa-6-azacyclopentadecan-11-yl)oxy)-3-hydroxy-6-methyltetrahydro-2H-pyran-4-yl)-1,3-dimethyl-3-phenylurea]	65	37	40	
CC[C@H]1OC(=O)[C@H](C)[C@@H](O[C@H]2C[C@@](C)(OC)[C@](O)(CN)[C@H](C)O2)[C@H](C)[C@@H](O[C@@H]2O[C@H](C)C[C@H](N(C)C(=O)N(C)c3ccccc3)[C@H]2O)[C@](C)(O)C[C@@H](C)CN[C@H](C)[C@@H](O)[C@]1(C)O [Example H-66, 1-((2S,3R,4S,6R)-2-(((2R,3S,4R,5R,8R,10R,11R,12S,13S,14R)-13-(((2R,4R,5S,6S)-5-(aminomethyl)-5-hydroxy-4-methoxy-4,6-dimethyltetrahydro-2H-pyran-2-yl)oxy)-2-ethyl-3,4,10-trihydroxy-3,5,8,10,12,14-hexamethyl-15-oxo-1-oxa-6-azacyclopentadecan-11-yl)oxy)-3-hydroxy-6-methyltetrahydro-2H-pyran-4-yl)-1,3-dimethyl-3-phenylurea]	> 250	106	250	
CCCNC[C@]1(O)[C@H](C)O[C@@H](O[C@H]2[C@H](C)[C@@H](O[C@@H]3O[C@H](C)C[C@H](N(C)C(=O)N(CC(F)(F)F)c4ccccc4)[C@H]3O)[C@](C)(O)C[C@@H](C)CN[C@H](C)[C@@H](O)[C@](C)(O)[C@@H](CC)OC(=O)[C@@H]2C)C[C@@]1(C)OC [Example H-54, 1-((2S,3R,4S,6R)-2-(((2R,3S,4R,5R,8R,10R,11R,12S,13S,14R)-2-ethyl-3,4,10-trihydroxy-13-(((2R,4R,5S,6S)-5-hydroxy-4-methoxy-4,6-dimethyl-5-((propylamino)methyl)tetrahydro-2H-pyran-2-yl)oxy)-3,5,8,10,12,14-hexamethyl-15-oxo-1-oxa-6-azacyclopentadecan-11-yl)oxy)-3-hydroxy-6-methyltetrahydro-2H-pyran-4-yl)-1-methyl-3-phenyl-3-(2,2,2-trifluoroethyl)urea]		9	6	> 64
CC[C@H]1OC(=O)[C@H](C)[C@@H](O[C@H]2C[C@@](C)(OC)[C@](O)(CN3Cc4nccnc4C3)[C@H](C)O2)[C@H](C)[C@@H](O[C@@H]2O[C@H](C)C[C@H](N(C)C(=O)N(C)c3ccccc3)[C@H]2O)[C@](C)(O)C[C@@H](C)CN[C@H](C)[C@@H](O)[C@]1(C)O [Example J-16, 1-((2S,3R,4S,6R)-2-(((2R,3S,4R,5R,8R,10R,11R,12S,13S,14R)-13-(((2R,4R,5S,6S)-5-((5,7-dihydro-6H-pyrrolo[3,4-b]pyrazin-6-yl)methyl)-5-hydroxy-4-methoxy-4,6-dimethyltetrahydro-2H-pyran-2-yl)oxy)-2-ethyl-3,4,10-trihydroxy-3,5,8,10,12,14-hexamethyl-15-oxo-1-oxa-6-azacyclopentadecan-11-yl)oxy)-3-hydroxy-6-methyltetrahydro-2H-pyran-4-yl)-1,3-dimethyl-3-phenylurea]		60	40	> 64
CCNC[C@]1(O)[C@H](C)O[C@@H](O[C@H]2[C@H](C)[C@@H](O[C@@H]3O[C@H](C)C[C@H](N(C)C(=O)N(C)c4ccccc4)[C@H]3O)[C@](C)(O)C[C@@H](C)CN[C@H](C)[C@@H](O)[C@](C)(O)[C@@H](CC)OC(=O)[C@@H]2C)C[C@@]1(C)OC [Example H-23, 1-((2S,3R,4S,6R)-2-(((2R,3S,4R,5R,8R,10R,11R,12S,13S,14R)-2-ethyl-13-(((2R,4R,5S,6S)-5-((ethylamino)methyl)-5-hydroxy-4-methoxy-4,6-dimethyltetrahydro-2H-pyran-2-yl)oxy)-3,4,10-trihydroxy-3,5,8,10,12,14-hexamethyl-15-oxo-1-oxa-6-azacyclopentadecan-11-yl)oxy)-3-hydroxy-6-methyltetrahydro-2H-pyran-4-yl)-1,3-dimethyl-3-phenylurea]	193		100	
CCCNC[C@]1(O)[C@H](C)O[C@@H](O[C@H]2[C@H](C)[C@@H](O[C@@H]3O[C@H](C)C[C@H](N(C)C(=O)Nc4ccc(C#N)cc4)[C@H]3O)[C@](C)(O)C[C@@H](C)CN[C@H](C)[C@@H](O)[C@](C)(O)[C@@H](CC)OC(=O)[C@@H]2C)C[C@@]1(C)OC [Example H-77, 3-(4-cyanophenyl)-1-((2S,3R,4S,6R)-2-(((2R,3S,4R,5R,8R,10R,11R,12S,13S,14R)-2-ethyl-3,4,10-trihydroxy-13-(((2R,4R,5S,6S)-5-hydroxy-4-methoxy-4,6-dimethyl-5-((propylamino)methyl)tetrahydro-2H-pyran-2-yl)oxy)-3,5,8,10,12,14-hexamethyl-15-oxo-1-oxa-6-azacyclopentadecan-11-yl)oxy)-3-hydroxy-6-methyltetrahydro-2H-pyran-4-yl)-1-methylurea]		30	200	> 64
CC[C@H]1OC(=O)[C@H](C)[C@@H](O[C@H]2C[C@@](C)(OC)[C@](O)(CNCCN3CCOCC3)[C@H](C)O2)[C@H](C)[C@@H](O[C@@H]2O[C@H](C)C[C@H](N(C)C(=O)N(C)c3ccccc3)[C@H]2O)[C@](C)(O)C[C@@H](C)CN[C@H](C)[C@@H](O)[C@]1(C)O [Example H-42, 1-((2S,3R,4S,6R)-2-(((2R,3S,4R,5R,8R,10R,11R,12S,13S,14R)-2-ethyl-3,4,10-trihydroxy-13-(((2R,4R,5S,6S)-5-hydroxy-4-methoxy-4,6-dimethyl-5-(((2-morpholinoethyl)amino)methyl)tetrahydro-2H-pyran-2-yl)oxy)-3,5,8,10,12,14-hexamethyl-15-oxo-1-oxa-6-azacyclopentadecan-11-yl)oxy)-3-hydroxy-6-methyltetrahydro-2H-pyran-4-yl)-1,3-dimethyl-3-phenylurea]	177		100	> 64
